“And” between values parts separate entries of the source, which are not always exact repeats. Equal entries are not always repeated. Where two headings read alike, the source gives them in different places.
Key:
[1] = Phase I pharmacokinetic study of (Z)-endoxifen tablet and capsule, single and multiple dose; format: in vivo, human; details: for (E)-endoxifen levels in serum and plasma: all the times studied
Procedure: A total of 24 healthy female subjects aged ≥18 years and ≤65 years (inclusive) at the time of screening were randomly assigned and enrolled into two groups (each group n=12) in double-blinded fashion and received the study drug by once daily oral administration. […] Both groups were dosed in the SAD phase of the study. The safety and PK results from both groups were reviewed to determine if both Groups 1 and 2 were to be dosed in the MAD phase of the study, or if only Group 2 (tablets) were to be dosed in the MAD phase. […] The subjects then received 14 daily doses in the MAD. Subjects were not required to take the drugs with food.
Subjects were admitted to the clinical facility on Day 1 for up to 3 days. […] Following completion of all safety assessments and sampling for PK analyses, subjects were discharged from the clinical facility on Day 2. Days 2 to 25 were study drug free or daily dosing pause. A safety summary and up to day 6 post dose, PK data were analyzed (blindedly) and reviewed prior to initiation of the MAD regimen in one or both groups.
MAD regimen started on Day 26. Depending on the outcome of the safety and PK review, wither […] or both Groups 1 and 2 were to be dosed in the MAD part of the study starting on Day 26. […] Subjects in MAD part of the study commenced daily oral administration of the study drug for 14 consecutive days (Days 26 to 39). Subjects were supplied with study drug and instructed to self-administer each morning on empty stomach.
Day 39 was the last day of study drug administration. On Day 39, each subject returned to the clinical facility prior to dose administration and were confined to the facility until Day 40 to allow for collection of blood for PK and safety assessment. Subjects were discharged on Day 40 and returned for blood collection for PK and safety assessment on study Days 42, 44, and 46.
Safety and PK samples was collected during the daily dosing pause on Days 4, 6, 15, and 22.
MAD: Day 26 pre-dose and on Day 32 pre-dose: safety and PK samples was collected. […] Pharmacokinetic parameters determined using Phoenix WinNonlin 8.1. All times used in the calculations of PK parameters were the actual elapsed time from most recent treatment administration, with the exception of pre-dose data which was given the nominal time of 0.00 hr.

[2] = Phase 2 clinical trial of oral endoxifen: safety and tolerability; format: in vivo, human; details: 4 mg/day, 16-40 days
Procedure: Secondary effects of orally administered (Z)-endoxifen were also assessed, namely the effect of pre-operative (Z)-endoxifen treatment on the expression levels of estrogen receptor and progesterone receptor. […] Additional exploratory objectives including assessing the effect of pre-operative (Z)-Endoxifen treatment on PCNA (S phase), phospho-Histone H3 (M phase), p16 and p21 (senescence), Beta-Galactosidase (senescence), and TUNEL (apoptosis) markers, and identifying tumor RNA expression changes using RNA sequence.
An initial group of six subjects was selected. Subjects visited the clinical facility once within 2 days prior to commencement of treatment for study assessments. […]
Each subject returned to the clinical facility for safety assessments on a day during the week preceding their scheduled surgery. The expression of Ki-67, ER, progesterone receptor (PgR), and other exploratory markers, was measured in tumor tissue obtained during the mastectomy (or lumpectomy) and compared to the expression of these markers in pre-operative baseline biopsy material obtained prior to commencement of study treatment. […] Ki-67, ER, PgR expression were measured using standard immunopathology techniques, and exploratory markers were measured using established laboratory assays. Endoxifen levels in blood measured in blood drawn prior to dosing on day 14 of study treatment administration. […]

[3] = Forced degradation (acid, base, heat, oxidation); format: physicochemical
[4] = Phase I study: safety and tolerability of (Z)-endoxifen tablet and capsule; format: in vivo, human
Text: The primary objective of the study was to determine and compare the pharmacokinetics of a single oral dose of a previously studied oral (Z)-endoxifen capsule with a sustained release composition in the form of an enteric coated delayed release (Z)-endoxifen tablet (“tablet”) in healthy female volunteers. […] A secondary objective of the study was to assess the safety and tolerability of each of the oral presentation groups and to assess and compare the side effects associated with (Z)-endoxifen (capsule) or the enteric coated delayed-release (Z)-endoxifen tablet using a questionnaire.
A study diary was provided to each participant for the purpose of recording study drug administration (date and time) and adverse events.
Study assessments included taking the subjects' medical history, including evaluation of any on-study adverse events and concomitant medication use; height and weight; physical examination; periodic vital signs (body temperature, heart rate, respiratory rate, blood pressure); periodic 12-lead ECGs. Laboratory tests included hematology, coagulation, urinalysis, serum chemistry, virology, illicit drug screen, alcohol breath test, and pregnancy test.
Specific assessment to evaluate treatment safety included the following: the frequency and type of adverse events, clinical laboratory testing, 12-lead-ECGs and vital signs. A modified FACTES® scoring questionnaire was used to assess symptomatology.

[5] = Safety, tolerability and pharmacokinetics of (Z)-Endoxifen in healthy female volunteers (Protocol AG-1001-AU-001); format: in vivo, human
Procedure: The safety, tolerability and pharmacokinetics of (Z)-Endoxifen was assessed in healthy female volunteers (Protocol AG-1001-AU-001). Participants were treated with oral (Z)-Endoxifen (1 mg, 2 mg and 4 mg) once daily for a total of fifteen doses (Days 1, and 8-21).
Average concentration at steady state (AUCtau/tau) were compared to published values.

[6] = tested on: breast cancer tumor cell proliferation (Ki-67); assay: Phase 2 clinical trial of oral endoxifen: Ki-67 in breast cancer tumors; format: in vivo, human
Procedure: A phase 2 clinical trial of (Z)-endoxifen for treatment of breast cancer was performed. Subjects with invasive breast cancer were administered (Z)-endoxifen orally prior to undergoing mastectomy or lumpectomy. The effect of pre-operative oral (Z)-endoxifen treatment on clinical response measured by Ki-67 expression levels was assessed. Ki-67 expression levels were used as a measure of tumor cell proliferation in the subjects. The purpose of this study was to determine the effect of orally administered endoxifen on breast cancer tumor cell proliferation.
Subjects were selected who had received an invasive breast cancer diagnosis that required a mastectomy or lumpectomy, in which the cancer was Estrogen Receptor (ER) positive and Human Epidermal growth factor Receptor 2 (HER2) negative.
Subjects with ER positive invasive breast cancer that were scheduled for mastectomy or lumpectomy were considered for the study. Subjects consenting to the study were screened within 28 days prior to commencement of the dosing. Potential subjects were asked to consent to have tissue sections obtained from the biopsy material used for their immunopathology diagnosis. The biopsy material was used to determine baseline expression levels for Ki-67, ER, PgR and the exploratory markers.
An initial group of six subjects was selected. Subjects visited the clinical facility once within 2 days prior to commencement of treatment for study assessments. Subjects were supplied with study drug and were asked to self-administer daily. A study diary was provided to each subject for the purpose of recording study drug administration (date and time) and any adverse events. All subjects received an oral daily dose of 4 mg/day (Z)-Endoxifen until the day preceding their scheduled surgery and for a minimum of 14-days. Subjects were instructed to take each dose in the morning in a fasted state, defined as no food at least 8 hours prior to study medication through to one hour following study medication. Subjects were instructed to self-administer (Z)-Endoxifen orally with a full cup (approximately 240 mL) of noncarbonated room temperature water (additional water is permitted, if needed). There are no restrictions related to water intake. Consecutive doses were administered 24 (±2) hours apart. If a scheduled dose was missed, the dose could be taken up to 6 hours after the scheduled dose.
Each subject returned to the clinical facility for safety assessments on a day during the week preceding their scheduled surgery. The expression of Ki-67, ER, progesterone receptor (PgR), and other exploratory markers, was measured in tumor tissue obtained during the mastectomy (or lumpectomy) and compared to the expression of these markers in pre-operative baseline biopsy material obtained prior to commencement of study treatment. Pharmacodynamic exploratory markers including Proliferating cell nuclear antigen (PCNA, S phase), phosphor-histone H3 (M phase), p16 and […] (senescence), beta-galactosidase (senescence), Terminal deoxynucleotidyl transferase dUTP nick end labeling (TUNEL, apoptosis), and RNA sequence were assessed. Ki-67, ER, PgR expression were measured using standard immunopathology techniques, and exploratory markers were measured using established laboratory assays. Endoxifen levels in blood measured in blood drawn prior to dosing on day 14 of study treatment administration. Individual and mean serum and plasma concentrations of Endoxifen were tabulated.

[7] = cited from earlier work
[8] = multiple administration dose phase
[9] = single administration dose phase

CCC(=C(c1ccc(O)cc1)c1ccc(OCCNC)cc1)c1ccccc1 [(E)-endoxifen]
(E)-endoxifen levels in serum and plasma [1, 8]: undetectable | (E)-endoxifen levels in serum and plasma [1, 9]: undetectable

CCC(=C(c1ccc(O)cc1)c1ccc(OCCNC)cc1)c1ccccc1 [(Z)-endoxifen, 4-hydroxy-N-desmethyl-tamoxifen]
safety or tolerability issues, including vasomotor symptoms [2]: no safety or tolerability issues | Plasma (Z)-endoxifen level ([1]; by Day 26 (600 hours post-dose)): below the detection levels | concentration at 14 days ([1]; female, human, blood, oral, 14 once daily 4 mg doses, read-out: (Z)-endoxifen maintained in the blood): ~13 ng/mL and > 30 nM | mean serum versus time-point matched mean plasma (Z)-endoxifen concentration [1, 8]: approximately 1.2 fold | time to achieve steady state levels of plasma and serum (Z)-endoxifen ([1]; once daily 4 mg doses): approximately 14 days | mean serum versus time-point matched mean plasma (Z)-endoxifen concentration [1, 9]: approximately 1.1 fold | % degradation ([3]; Acid: 0.5N HCl for 27 hrs): No degradation | % degradation ([3]; Base: 0.5N NaOH for 27 hrs): 0.12% | % degradation ([3]; Heat: 105° C. for 51 hrs): No degradation | night sweats reported, percent of subjects ([4]; multiple dose administration phase, 2 of 19 subjects): 11% | hot flash reported, percent of subjects ([4]; multiple dose administration phase, 4 of the 18 subjects): 22% | hot flash reported, percent of subjects ([4]; single dose administration phase, 2 of 18 subjects): 11% | % Ratio of Css Study (serum)/Literature (plasma) ([5]; 1 mg dose): 154% | Study Result of Average Serum (Z)-Endoxifen Css ([5]; 1 mg dose): 19.1 ng/mL and 51.1 nM | Cmax and AUC24 hr across the three dose levels ([5]; 1 mg, 2 mg and 4 mg): dose-proportionality | safety signals ([5]; 1 mg, 2 mg and 4 mg once daily, fifteen doses): no clinically significant safety signals | % Ratio of Css Study (serum)/Literature (plasma) ([5]; 2 mg dose): 204% | Study Result of Average Serum (Z)-Endoxifen Css ([5]; 2 mg dose): 38 ng/mL and 101.7 nM | % Ratio of Css Study (serum)/Literature (plasma) ([5]; 4 mg dose): 150% | Study Result of Average Serum (Z)-Endoxifen Css ([5]; 4 mg dose): 85.1 ng/mL and 227.9 nM | half-life ([5]; female, human, serum, oral, 1 mg, 2 mg and 4 mg, read-out: mean half-life (t1/2) by dose level): 42 to 53 h | time to steady state ([5]; once daily dosing): approximately 7 days | commonly occurring adverse events with a relationship of possible or probable ([5]; only reported in participants who received (Z)-Endoxifen): upper respiratory infection, hot flush, abdominal distension, dry mouth and menstruation delayed | tolerability ([5]; single dose and then daily for 14 days, 1 mg, 2 mg and 4 mg): well tolerated | Ki-67% reduction, AVERAGE ([6]; initial results, six subjects, 4 mg/day, average 22 days): 69% | Ki-67 reduction in every patient ([6]; six subjects, 4 mg/day): more than 50% | Ki-67 level after Endoxifen treatment (all patients) ([6]; six subjects, 4 mg/day, 16-40 days): low (low (defined as less than ˜14%)) | Ki-67% reduction ([6]; subject R1001): 60% | Post Endoxifen Ki-67% ([6]; subject R1001, 21 days on Endoxifen 4 mg, pre 5%): 2% | Ki-67% reduction ([6]; subject R1002): 60% | Post Endoxifen Ki-67% ([6]; subject R1002, 23 days on Endoxifen 4 mg, pre 20%): 8% | Ki-67% reduction ([6]; subject R1003): 87% | Post Endoxifen Ki-67% ([6]; subject R1003, 17 days on Endoxifen 4 mg, pre 90%): 12% | Ki-67% reduction ([6]; subject R1004): 91% | Post Endoxifen Ki-67% ([6]; subject R1004, 17 days on Endoxifen 4 mg, pre 22%): 2% | Ki-67% reduction ([6]; subject R1005): 60% | Post Endoxifen Ki-67% ([6]; subject R1005, 40 days on Endoxifen 4 mg, pre 25%): 10% | Ki-67% reduction ([6]; subject R1006): 58% | Post Endoxifen Ki-67% ([6]; subject R1006, 16 days on Endoxifen 4 mg, pre 12%): 5% | Ki-67 levels following treatment, all six patients ([6]; subsequent results): below 25% | average reduction in tumor cell proliferation, as measured by Ki-67 ([6]; subsequent results, 22 days of dosing, six subjects, p=0.031): about 74% | Published Literature Result of Average Plasma (Z)-Endoxifen Css ([7]; 1 mg dose): 12.4 ng/mL and 33.1 nM | Published Literature Result of Average Plasma (Z)-Endoxifen Css ([7]; 2 mg dose): 18.6 ng/mL and 49.8 nM | Published Literature Result of Average Plasma (Z)-Endoxifen Css ([7]; 4 mg dose): 56.8 ng/mL and 152.1 nM | Published Literature Result of Average Plasma (Z)-Endoxifen Css ([7]; 8 mg dose): 96.8 ng/mL and 259.2 nM

CC/C(=C(\c1ccc(O)cc1)c1ccc(OCCNC)cc1)c1ccccc1.Cl [Endoxifen Chloride]
(Z)-Endoxifen Plasma ([7]; 20 mg/day, Aromatase Inhibitor Refractory Metastatic Breast Cancer, Goetz et al. 2013): 390 nM | Outcomes ([7]; 20 mg/day, Goetz et al. 2013): Gr 2 hot flash (1 | (Z)-Endoxifen Plasma ([7]; 40 mg/day, Aromatase Inhibitor Refractory Metastatic Breast Cancer, Goetz et al. 2013): 660 nM | Outcomes ([7]; 40 mg/day, Goetz et al. 2013): None; Stable disease | (Z)-Endoxifen Plasma ([7]; 60 mg/day, Aromatase Inhibitor Refractory Metastatic Breast Cancer, Goetz et al. 2013): 1,010 nM | Outcomes ([7]; 60 mg/day, Goetz et al. 2013): Gr 4 Triglycerides | (Z)-Endoxifen Plasma ([7]; 80 mg/day, Aromatase Inhibitor Refractory Metastatic Breast Cancer, Goetz et al. 2013): 1,610 nM | Outcomes ([7]; 80 mg/day, Goetz et al. 2013): Gr 2 Hot flashes | (Z)-Endoxifen Plasma ([7]; 100 mg/day, Aromatase Inhibitor Refractory Metastatic Breast Cancer, Goetz et al. 2013): 2,480 nM | Outcomes ([7]; 100 mg/day, Goetz et al. 2013): Gr 2 nausea (1 pt); Gr | (Z)-Endoxifen Plasma ([7]; 120 mg/day, Aromatase Inhibitor Refractory Metastatic Breast Cancer, Goetz et al. 2013): 2,180 nM | Outcomes ([7]; 120 mg/day, Goetz et al. 2013): Gr 2 hypersomnia, | Outcomes: maximum tolerated dose ([7]; 20->160 mg/day, Goetz et al. 2015): not observed. 1 DLT, | (Z)-Endoxifen Plasma ([7]; 160 dose (20->160 mg/day), Goetz et al. 2015): 3,600 nM
